What all share (assay): NCI-60 cell line screen, 48 h
Experiment [1] relates to OVCAR-4 ovarian.
The subject of experiment [2] is SR leukemia.
Experiment [3] has as its system EKVX NSCLC.
For experiment [4], the system named is HCC-2998 colon.
In experiment [5] the test system is TK-10 renal.
Experiment [6] relates to K-562 leukemia.
In experiment [7] the test system is HCT-15 colon.
Experiment [8] concerns CCRF-CEM leukemia.
For experiment [9], the system named is COLO 205 colon.
Experiment [10] relates to UACC-62 melanoma.

The structures appear in SMILES notation.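 Assay format: 96-well plates, 48-hour exposure. Here, GI50 denotes the concentration required for 50% inhibition of growth. TGI marks complete inhibition of growth.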

Take `O=C(CC(=O)n1nc(-c2ccccc2)c(N=Nc2ccc(Cl)cc2)c1-c1ccccc1)Nc1ccc(Cl)cc1`: the TGI was above 100 µM in experiment [1]; above 100 µM in [2]; above 100 µM in [3]; above 100 µM in [4]; above 100 µM in experiment [5]; above 66.2 µM in experiment [6]. Further, the TGI was above 55.8 µM in experiment [7], above 62.8 µM in [8], above 63.9 µM in experiment [9] and above 100 µM in [10].

For `CCOC(=O)CC(C)C1(C(=O)OCC)CCCCC1=O` (configuration not stated), the TGI is above 100 µM in experiment [1]; 55.4 µM in experiment [2]; above 100 µM in experiment [3]; above 100 µM in experiment [4]; above 100 µM in [5]; above 100 µM in experiment [6]. Besides, the TGI in experiment [7] is 50 µM; in experiment [8], above 100 µM; in experiment [9], above 100 µM; in experiment [10], above 100 µM.

As to `CC1(C)C(=O)/C(=C\c2cccnc2)C[C@]2(C)[C@H]3CC[C@@H]4[C@H]5[C@H](C(=O)/C=C/c6cccnc6)CC[C@]5(C(=O)O)CC[C@@]4(C)[C@]3(C)CC[C@@H]12`, the GI50 was 4.37 µM in [1]; 2.03 µM in experiment [2]; 2.11 µM in experiment [3]; 1.88 µM in [4]; 3.57 µM in [5]; 2.05 µM in experiment [6]. The GI50 in experiment [7] was 1.76 µM; in [8], 1.44 µM; in [9] it was 2.33 µM; in experiment [10], 2.03 µM. The TGI was above 100 µM in experiment [1]; 29.7 µM in experiment [2]; 4.92 µM in experiment [3]; 3.55 µM in experiment [4]; 10.9 µM in experiment [5]; 20.5 µM in experiment [6]. Moreover, the TGI in experiment [7] amounted to 4.54 µM; in experiment [8], 8.07 µM; in experiment [9], 5.17 µM; in experiment [10], 4.02 µM.

Turning to `O=C1c2cccnc2-c2nc(-c3ccc(Cl)cc3)cc3c2c1nc1ccccc13`, the GI50 is 43.6 µM in [1]; 7.38 µM in experiment [2]; above 100 µM in experiment [3]; above 100 µM in experiment [4]; 24.6 µM in [5]; 38.7 µM in experiment [6]. Moreover, the GI50 is 23.9 µM in experiment [7], above 100 µM in [8], above 100 µM in experiment [9] and 76 µM in experiment [10]. The TGI in [1], in experiment [2], in experiment [3], in [4], in experiment [5] and in [6] was above 100 µM throughout. Moreover, the TGI in experiment [7], in experiment [8], in experiment [9] and in experiment [10] was above 100 µM each time.

Take `CCCCCCCCCCCCCCCC(=O)OCC(C[As](=O)(O)O)OC(=O)CCCCCCCCCCCCCCC` (configuration not stated): the TGI in [1], in experiment [2], in experiment [3], in experiment [4], in experiment [5] and in [6] was above 100 µM throughout. Further, the TGI in experiment [7], in experiment [8], in [9] and in [10] was above 100 µM each time.

On to `O=C(Nc1n[nH]c2cc(-c3ccccc3)ccc12)C1CC1`, for which the GI50 is above 25 µM in experiment [1]; 3.31 µM in [2]; 24.4 µM in [3]; 8.07 µM in [4]; above 25 µM in [5]; 1.42 µM in [6]. Besides, the GI50 in experiment [7] is 4.03 µM; in experiment [8], 8.59 µM; in experiment [9] it was 12.4 µM; in [10], above 25 µM. The TGI in experiment [1], in [2], in experiment [3], in experiment [4], in experiment [5] and in experiment [6] was above 25 µM each time. In addition, the TGI in experiment [7], in experiment [8], in [9] and in [10] was above 25 µM each time.

For `COCC[C@H]1CCC/C=C/[C@@H]2C[C@H](O)C[C@H]2[C@H](O)/C=C/C(=O)O1`, the GI50 in experiment [1] is 0.0528 µM; in [2] it was 0.141 µM; in [3], 0.114 µM; in experiment [4], 0.079 µM; in experiment [5], 0.18 µM; in [6], 0.313 µM. Also, the GI50 was 0.314 µM in experiment [7], 0.322 µM in [8], 0.0227 µM in [9] and 0.0425 µM in [10]. For the same molecule, the TGI is above 100 µM in experiment [3]; 0.63 µM in experiment [5]; above 100 µM in experiment [6]; above 100 µM in [7]; above 100 µM in experiment [8]; 0.0472 µM in experiment [9]. Besides, the TGI in experiment [10] is above 100 µM.

As to `CC(C)c1c(O)c(O)c2c(c1O)C(=O)C(O)=C1C(C)(C)CCC[C@@]12C`, the TGI was determined as 16.7 µM in experiment [1]; 6.59 µM in [2]; 11.5 µM in experiment [3]; 10.4 µM in [4]; 15.1 µM in experiment [5]; 9.69 µM in experiment [6]. Also, the TGI in experiment [7] was found to be 13.2 µM; in [8], 7.43 µM; in experiment [9], 3.6 µM; in experiment [10], 16.1 µM.

Consider `O=C(Nc1cc(Cl)c(Cl)cc1Cl)C(=O)C1C(=O)NC(=S)NC1=O`, for which the TGI in experiment [1], in experiment [2], in experiment [3], in experiment [4], in [5] and in experiment [6] was above 100 µM throughout. Moreover, the TGI in experiment [7], in experiment [8], in [9] and in experiment [10] was above 100 µM each time.

The record behind these values is PubChem BioAssay (NCI).
